{"source": "paper PMC9503459", "about": "“Antifungal Activity, Structural Stability, and Immunomodulatory Effects on Human Immune Cells of Defensin from the Lentil Lens culinaris” (Membranes, 2022)", "tested_on": "CD8+ T cytotoxic cells", "experiment": "Cytokine response by multiplex xMAP, CD8+ T cytotoxic cells", "assay_type": "cell-based, human", "settings": "2 µM, 24 h", "protocol": "Colorectal adenocarcinoma Caco-2 cell line (ATCC HTB-37) was cultured in complete DMEM/F12 (1:1) medium containing 10% fetal bovine serum (FBS, Gibco) and 1X antibiotic-antimycotic solution (1XAAS, Invitrogen, Waltham, MA, USA). The acute monocytic leukemia THP-1 line (ATCC TIB-202) was cultured in complete RPMI-1640 medium, containing 10% FBS, 1XAAS, and […]. THP-1 cells were differentiated into pro-inflammatory macrophages (Mφ1) with phorbol 12-myristate 13-acetate (Sigma-Aldrich) for 24 h and subsequently polarized with lipopolysaccharide from E. coli (Sigma-Aldrich) and rhIFN-γ (Sigma-Aldrich) for another 48 h according to previously reported protocol. All cells were cultured in a humidified CO2 incubator (5% CO2, 37 °C). Primary peripheral blood mononuclear cells (PBMCs) collected from a healthy donor were purchased from American Type Culture Collection (ATCC PCS-800-011). CD4^+ T-helper and CD8^+ T cytotoxic cells were isolated from PBMCs by magnetic separation with mouse anti-human CD4-PE (clone 13B8.2, Beckman Coulter Diagnostics, Pasadena, CA, USA) and CD8-PE (clone REA734, Miltenyi Biotec, Bergisch Gladbach, Germany), Anti-PE MicroBeads (Miltenyi Biotec), and LS Separation Columns (Miltenyi Biotec). Isolated CD4^+ and CD8^+ cells were expanded separately with Dynabeads™ Human T-Expander CD3/CD28 (Gibco, Waltham, MA, USA) in RPMI-1640 supplemented with 10% FBS, 1XAAS and 100 U/mL rh-IL-2 (Gibco). Regulatory CD4^+ FoxP3^+ T cells (Tregs) were isolated from PBMCs by magnetic separation with CD4^+CD25^+ Regulatory T Cell Isolation Kit, human (Miltenyi Biotec). Primary CD14^+ blood monocytes were isolated from PBMCs by adherence according to standard technique. Monocyte-derived mature dendritic cells (moDCs) were obtained from CD14^+ blood monocytes according to the previously reported protocol. Briefly, blood monocytes were incubated in complete RPMI-1640 medium, containing 10% FBS, 1XAAS, 800 U/mL rhGM-CSF (Sci-Store, Russia, Moscow) and 500 U/mL rhIL-4 (Sci-Store) for 3 days. Fresh complete RPMI-1640 medium with rhGM-CSF and rhIL-4 was added to the culture on day 3. On day 5, fresh complete RPMI-1640 containing 100 U/mL rhTNF-α (Sigma) as well as 800 U/mL rhGM-CSF and 500 U/mL rhIL-4 was added and the culture was incubated for another 4 days until full maturation.\nCaco-2 cells were seeded into the wells of a 48-well plate, coated with 0.1% bovine collagen (Sigma-Aldrich) for 24 h, 3 weeks before the experiment with complete DMEM/F12 (1:1) medium renewal every 2–3 days. Monocytes, moDCs, CD4^+ T-helper and CD8^+ T cytotoxic cells, Mφ1, and Regulatory CD4^+ FoxP3^+ T cells were seeded into the wells of 48-well plates in the complete RPMI-1640 medium supplemented with 10% Human AB serum (HABS, Capricorn Scientific, Ebsdorfergrund, Germany) and 1XAAS 24 h prior to the experiment; medium in Caco-2-containing wells was also replaced with the same medium. After 24 h, half of the medium in each well was replaced by fresh complete RPMI-1640 medium with 10% HABS, supplemented with 4 µM of Lc-def for the sample wells or fresh medium alone for the control wells. Cell cultures were kept in CO2-incubator (5% CO2, 37 °C) for another 24 h. Culture supernatants were collected 24 h later and stored at −70 °C degrees less than one month prior to the analytes assessment. […]", "note": "No end group written: not given here."}
{"substance": "Lc-def: defensin from lentil Lens culinaris seeds (UniProt:B3F051), recombinant, overexpressed in Escherichia coli (KTCENLSDSFKGPCIPDGNCNKHCKEKEHLLSGRCRDDFRCWCTRNC; disulfide (positions not given here); ends not checked; also: disulfide bonds present, pairing not given here; UniProt B3F051 28-74, looked up)", "values": [{"measurement": "EGF", "result": "<1.95↓ pg/ml"}, {"measurement": "Eotaxin", "result": "<3.23↓ pg/ml"}, {"measurement": "FGF-2", "result": 0, "unit": "pg/mL"}, {"measurement": "FLT-3L", "result": "<0.45↓ pg/ml"}, {"measurement": "Fractalkine", "result": "<23.19↓ pg/ml"}, {"measurement": "G-CSF", "result": "<2.57↓ pg/ml"}, {"measurement": "GM-CSF", "result": "<1.36↓ pg/ml"}, {"measurement": "GROa", "result": "<0.67↓ pg/ml"}, {"measurement": "IFNa2", "result": "<4.43↓ pg/ml"}, {"measurement": "IFNg", "result": "<1.99↓ pg/ml"}, {"measurement": "IL-1RA", "result": "<0.83↓ pg/ml"}, {"measurement": "IL-1a", "result": 9, "unit": "pg/mL"}, {"measurement": "IL-1b", "result": "<18.72↓ pg/ml"}, {"measurement": "IL-2", "result": "<0.31↓ pg/ml"}, {"measurement": "IL-3", "result": "<0.48↓ pg/ml"}, {"measurement": "IL-4", "result": "<0.31↓ pg/ml"}, {"measurement": "IL-5", "result": 9.01, "unit": "pg/mL"}, {"measurement": "IL-6", "result": "<0.30↓ pg/ml"}, {"measurement": "IL-7", "result": "<0.33↓ pg/ml"}, {"measurement": "IL-8", "result": "<0.49↓ pg/ml"}, {"measurement": "IL-9", "result": "<1.05↓ pg/ml"}, {"measurement": "IL-10", "result": "<0.68↓ pg/ml"}, {"measurement": "IL-12 (p40)", "result": "<3.02↓ pg/ml"}, {"measurement": "IL-12 (p70)", "result": "<1.48↓ pg/ml"}, {"measurement": "IL-13", "result": "<5.00↓ pg/ml"}, {"measurement": "IL-15", "result": "<1.45↓ pg/ml"}, {"measurement": "IL-17A", "result": "<1.55↓ pg/ml"}, {"measurement": "IL-17E/IL-25", "result": "<20.59↓ pg/ml"}, {"measurement": "IL-17F", "result": "<16.96↓ pg/ml"}, {"measurement": "IL-18", "result": "<0.35↓ pg/ml"}, {"measurement": "IL-22", "result": "<8.31↓ pg/ml"}, {"measurement": "IL-27", "result": "<8.55↓ pg/ml"}, {"measurement": "IP-10", "result": "<1.56↓ pg/ml"}, {"measurement": "M-GSF", "result": "<23.75↓ pg/ml"}, {"measurement": "MCP-1", "result": "<1.52↓ pg/ml"}, {"measurement": "MCP-3", "result": "<3.95↓ pg/ml"}, {"measurement": "MDC", "result": "<0.35↓ pg/ml"}, {"measurement": "MIG", "result": "<3.43↓ pg/ml"}, {"measurement": "MIP-1a", "result": "<1.76↓ pg/ml"}, {"measurement": "MIP-1b", "result": "<1.92↓ pg/ml"}, {"measurement": "PDGF-AA", "result": "<7.38↓ pg/ml"}, {"measurement": "PDGF-AB/BB", "result": "<9.75↓ pg/ml"}, {"measurement": "RANTES", "result": 366.74, "unit": "pg/mL"}, {"measurement": "TGF-a", "result": "<0.66↓ pg/ml"}, {"measurement": "TNFa", "result": "<3.91↓ pg/ml"}, {"measurement": "TNFb", "result": "<0.73↓ pg/ml"}, {"measurement": "VEGFa", "result": "<1.27↓ pg/ml"}, {"measurement": "effects on cytokine production", "result": "No effects"}, {"measurement": "sCD40L", "result": "<6.66↓ pg/ml"}]}
